From ChEMBL document CHEMBL3826954, “Structure-Guided Discovery of Selective Antagonists for the Chromodomain of Polycomb Repressive Protein CBX7” (ACS Med Chem Lett, 2016)
Activity calls are given as the source filed them. No cut-off for these calls is given here.

Key:
[1] = target: T1, Chromobox protein homolog 7 (Homo sapiens) (UniProt O95931); assay: Antagonist activity at CBX7ChD (7 to 66 residues) expressed in human PC3 cells assessed as transcriptional derepression of p16INK4a at 50 to 250 uM after 12 hrs by qPCR method; type: cell-based; conditions: PC-3
T1 sequence (whole entry): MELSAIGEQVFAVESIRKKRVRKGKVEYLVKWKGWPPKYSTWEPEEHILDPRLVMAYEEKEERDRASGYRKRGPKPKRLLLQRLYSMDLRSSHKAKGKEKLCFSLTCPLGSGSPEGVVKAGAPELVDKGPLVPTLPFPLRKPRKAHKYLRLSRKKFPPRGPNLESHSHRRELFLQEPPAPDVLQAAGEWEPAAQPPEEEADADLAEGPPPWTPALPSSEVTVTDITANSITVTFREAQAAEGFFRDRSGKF

[2] = target: T2, Chromobox protein homolog 7 (Homo sapiens, UniProt O95931); assay: Binding affinity to CBX7ChD (7 to 66 residues) (unknown origin) expressed in RIPL-BL21 (DE3)-CodonPlus competent cells assessed as compound/protein/FITC-labeled loop C of ANRIL ternary complex formation by fluorescence anisotropy assay
T2 sequence (O95931 whole entry): T1 sequence (whole entry)

[3] = target: T2, Chromobox protein homolog 7; assay: Binding affinity to CBX7ChD (7 to 66 residues) (unknown origin) expressed in RIPL-BL21 (DE3)-CodonPlus competent cells in presence of FITC-labeled SETDB1-K1170me3/H3K27me3/ANRIL-LoopC RNA by fluorescence anisotropy assay
[4] = target: T1, Chromobox protein homolog 7 (Homo sapiens); assay: Antagonist activity at CBX7ChD (7 to 66 residues) expressed in human PC3 cells assessed as transcriptional derepression of p16INK4a after 12 hrs by qPCR method; type: cell-based; conditions: PC-3
[5] = target: T3, Chromobox protein homolog 7 (Mus musculus) (UniProt Q8VDS3); assay: Antagonist activity at CBX7ChD (7 to 66 residues) expressed in mouse embryoid bodies assessed as transcriptional derepression of p16INK4a mRNA levels at 1 to 2 uM after 12 hrs by qPCR method
T3 sequence (whole entry): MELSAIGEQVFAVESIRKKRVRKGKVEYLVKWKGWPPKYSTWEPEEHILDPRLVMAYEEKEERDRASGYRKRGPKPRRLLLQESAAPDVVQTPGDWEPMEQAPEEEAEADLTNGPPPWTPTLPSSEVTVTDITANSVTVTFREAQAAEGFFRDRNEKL

[6] = Induction of transcriptional derepression of HIF1a in human PC3 cells at 1 to 5 uM after 12 hrs by qPCR method; type: cell-based; conditions: pc-3, 12 h
[7] = target: T2, Chromobox protein homolog 7; assay: Binding affinity to 15N-labeled CBX7ChD (7 to 66 residues) (unknown origin) expressed in RIPL-BL21 (DE3)-CodonPlus competent cells by HSQC/NMR titration
[8] = target: T3, Chromobox protein homolog 7 (Mus musculus); assay: Antagonist activity at CBX7ChD (7 to 66 residues) expressed in mouse embryonic stem cells assessed as p16INK4a expression levels at 1 to 2 uM after 12 hrs by Western blot analysis; type: cell-based
[9] = target: T1, Chromobox protein homolog 7 (Homo sapiens); assay: Binding affinity to CBX7ChD (7 to 66 residues) (unknown origin) expressed in RIPL-BL21 (DE3)-CodonPlus competent cells assessed as enhancement of FITC-ANRIL-loopC/FITC-16mer-RNA binding to protein by fluorescence anisotropy assay
[10] = target: T3, Chromobox protein homolog 7 (Mus musculus); assay: Antagonist activity at CBX7ChD (7 to 66 residues) expressed in mouse embryonic stem cells assessed as transcriptional derepression of noggin at 0.5 uM after 18 to 36 hrs by qPCR method; type: cell-based
[11] = target: T3, Chromobox protein homolog 7 (Mus musculus); assay: Antagonist activity at CBX7ChD (7 to 66 residues) expressed in mouse embryonic stem cells assessed as reduction of protein occupancy at Hoxd3 gene locus at 0.5 uM after 18 to 36 hrs by ChIP analysis; type: cell-based
[12] = Induction of transcriptional derepression of Gapdh in mouse embryonic stem cells at 0.5 uM after 18 to 36 hrs by qPCR method; type: cell-based; conditions: embryonic stem cell
[13] = target: T3, Chromobox protein homolog 7 (Mus musculus); assay: Antagonist activity at CBX7ChD (7 to 66 residues) expressed in mouse embryonic stem cells assessed as transcriptional derepression of Hoxd3 at 0.5 uM after 18 to 36 hrs by qPCR method; type: cell-based

inhibition [1] | Ki [3] | SMILES | also measured
inactive |  | COc1cccc(C(=O)N2CCN(C(=O)COc3cc(C)c(N)c(C(C)C)c3)CC2)c1OC | 
 | 4.8 µM | COc1cccc(C(=O)N2CCN(C(=O)COc3cc(C)c(NC(N)=O)c(C)c3)CC2)c1OC | 
inactive |  | COc1cccc(C(=O)N2CCN(C(=O)COc3ccc(NC(C)=O)c(C)c3)CC2)c1OC | 
 | 10 µM | COc1cccc(C(=O)N2CCN(C(=O)COc3ccc(NC(N)=O)c(C)c3)CC2)c1OC | 
 |  | Cc1ccccc1Cn1c(=N)n(CC(O)c2ccc(Cl)c(Cl)c2)c2ccccc21 (stereo not given) | inhibition [4]: Dose-dependent effect; inhibition [5]: Active; Activity [6]: Non-toxic; Kd [7]: 500 µM; inhibition [8]: Active; Kd [2]: 23.8 µM; Activity [9]: Dose-dependent effect; inhibition [10]: Active; inhibition [11]: Active; Activity [12]: Non-toxic; inhibition [13]: Active
 | 16.9 µM | COc1cccc(C(=O)N2CCN(C(=O)COc3cc(C)c(N)c(C)c3)CC2)c1OC | 
inactive | 10 µM | CCS(=O)(=O)Nc1c(C)cc(OCC(=O)N2CCN(C(=O)c3cccc(OC)c3OC)CC2)cc1C | 
 | 39.3 µM | COc1cccc(C(=O)N2CCN(C(=O)COc3ccc(N)c(C)c3)CC2)c1OC | 
inactive |  | COc1cccc(C(=O)N2CCN(C(=O)COc3cc(C)c(NS(C)(=O)=O)c(C)c3)CC2)c1OC | 
inactive | 25 µM | CCS(=O)(=O)Nc1ccc(OCC(=O)N2CCN(C(=O)c3cccc(OC)c3OC)CC2)cc1C | 

SMILES | inhibition [1] | Ki [3] | also measured
COc1cccc(C(=O)N2CCN(C(=O)COc3cccc(C)c3)CC2)c1OC | inactive | 33.1 µM | Kd [2]: 125 µM
